Test results published in article PMC8802628, “Selective activation of PFKL suppresses the phagocytic oxidative burst” (Cell, 2021).

Tests used:
PFKL [1] = biological target: T1, PFKL (Homo sapiens, UniProt P17858); assay: Thermal inactivation assay of PFKL; type: biochemical; conditions: 35°C; 200 μM FBP, 200 nM NA-11
T1 construct: made in house; host or cells: Sf9 insect cells (baculovirus, Bac-to-Bac)
T1 sequence (P17858 1-780): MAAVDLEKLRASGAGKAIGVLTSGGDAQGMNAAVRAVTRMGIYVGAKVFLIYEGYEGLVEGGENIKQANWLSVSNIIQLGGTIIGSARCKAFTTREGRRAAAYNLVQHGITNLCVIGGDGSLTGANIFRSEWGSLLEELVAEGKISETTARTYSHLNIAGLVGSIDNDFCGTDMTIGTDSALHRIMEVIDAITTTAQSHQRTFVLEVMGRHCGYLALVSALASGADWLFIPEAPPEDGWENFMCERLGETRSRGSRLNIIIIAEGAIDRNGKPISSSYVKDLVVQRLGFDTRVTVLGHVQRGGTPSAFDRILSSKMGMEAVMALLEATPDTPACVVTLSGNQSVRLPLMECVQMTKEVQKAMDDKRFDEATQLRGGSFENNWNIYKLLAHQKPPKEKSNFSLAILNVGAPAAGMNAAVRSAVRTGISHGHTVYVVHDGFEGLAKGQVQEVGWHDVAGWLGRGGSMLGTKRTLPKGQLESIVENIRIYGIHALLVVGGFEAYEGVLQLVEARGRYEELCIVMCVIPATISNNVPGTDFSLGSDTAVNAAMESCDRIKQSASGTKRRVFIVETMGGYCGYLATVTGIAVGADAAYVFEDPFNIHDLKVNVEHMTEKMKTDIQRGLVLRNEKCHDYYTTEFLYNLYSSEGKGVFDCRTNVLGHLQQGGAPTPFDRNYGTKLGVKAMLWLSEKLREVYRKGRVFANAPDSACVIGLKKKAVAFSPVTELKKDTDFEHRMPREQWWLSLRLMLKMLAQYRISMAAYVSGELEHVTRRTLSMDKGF
Method: Thermal inactivation assays were performed as previously described for PFKP, with modifications to account for the decreased stability of PFKL ([Sánchez-Martínez et al., 2000]). PFKL was diluted to 10 ng/mL, with a final buffer composition of 53.3 mM HEPES, 100 mM KCl, 0.167 mM DTT, 83.3 μM ammonium sulfate, 0.83% glycerol, 0.170 mM ATP, and 16.7 mM EDTA. Samples were incubated at 35°C. At the times indicated, samples were removed and residual PFK1 activity measured using the PK/LDH auxiliary enzyme assay described above with 125 μM ATP and 5 mM F6P. To determine if small molecule ligands altered PFKL stability, 200 μM FBP and 200 nM NA-11 were added.

PFKL [2] = biological target: T1, PFKL; assay: Recombinant PFKL activity assay (relief of ATP inhibition); type: biochemical; conditions: 3.1 mM ATP
Text: Recombinant N-terminal His-tagged human PFKL (NP_002617), PFKM (NP_000280), and PFKP (NM_002627.4) were generated as described ([Webb et al., 2015], [2017]). Point mutants of PFK1 were generated using the QuikChange Lightning kit (Aligent).
His-tagged PFK1 was expressed and purified as described with slight modifications ([Webb et al., 2015], [2017]). Briefly, baculovirus was generated using the Bac-to-Bac Expression system (Invitrogen). PFK1 was expressed in 2-5 × 10^6 sf9 cells at a multiplicity of infection of two for 48 h. Cells were lysed in 20 mM HEPES, pH 7.5, 80 mM potassium phosphate, 1 mM 2-mercapentoethanol, 10% glycerol, 10 mM imidazole, and EDTA-free Protease Inhibitor Cocktail (Abcam) with a Dounce homogenizer. The soluble lysate was incubated with HisPur cobalt resin (ThermoFisher Scientific). The resin was washed with 5 bead volumes lysis buffer, 10 bead volumes lysis buffer containing 2 M NaCl, and 5 further bead volumes lysis buffer. PFK1 was eluted in lysis buffer containing 100 mM imidazole. Fractions containing protein were pooled, passed over a desalting column equilibrated in freezing buffer [20 mM HEPES pH 7.5, 1 mM DTT, 500 μM ammonium sulfate, 5% glycerol, 1 mM ATP, and 100 μM EDTA] and concentrated using an Amicon Ultracel-30K Centrifugal Filter Unit (MilliporeSigma). Protein was quantified using a Bradford Protein Assay kit (ThermoFisher Scientific), and aliquotes frozen in liquid nitrogen for storage at −80°C.
PFK1 activity was determined using the rate of FBP production via an auxiliary enzyme assay adapted to a 96-well format ([Brüser et al., 2012]; [Webb et al., 2015]). The auxiliary enzymes aldolase, triosephosphate isomerase, and glycerol phosphate dehydrogenase were purchased from MilliporeSigma as ammonium sulfate slurries and desalted using an Amicon Ultracel-10K Centrifugal Filter Unit. For assays containing FBP, the rate of ADP production was determined using the auxiliary enzymes pyruvate kinase (PK) and lactate dehydrogenase (LDH) (MilliporeSigma) in a buffer containing 250 μM phosphoenolpyruvic acid, […] NADH, 50 mM HEPES pH 7.5, 100 mM KCl, 1 mM DTT, and effector concentrations as described in the text. The temperature was equilibrated to 25°C for 5 min before initiating the reaction 10 mM MgCl2. Absorbance at 340 nm was measured using a Varioskan LUX Multimode microplate reader (ThermoFisher). Kinetic parameters were generated by nonlinear regression analysis using Prism (GraphPad Software) and are the mean of a minimum of three measurements from two independent preparations of protein. One unit of activity was defined as the amount of enzyme that catalyzed the formation of 1 μmol of fructose 1,6-bisphosphate per min at 25°C. Assays for PFKM were performed at pH 7.0 due to the pH-dependence of ATP inhibition ([Trivedi and Danforth, 1966]).

[3] = test system: human bronchial epithelial cells (HBECs); assay: Epithelial barrier tissue damage assay (FITC-dextran); type: cell-based; conditions: PMA-activated neutrophils on HBECs
Method: Human bronchial epithelial cells (HBECs) (4 × 10^4 in […] complete PneumaCult-Ex plus medium) were added to a HTS Transwell-96 permeable support plate (polyester membrane with a 0.4 μm pores) and immersed in receiver plates containing 150 μL of complete PneumaCult-Ex plus medium for 3 days. The medium on confluent monolayers was then replaced with RPMI medium containing neutrophils (4 × 10^4) in RPMI buffer that were previously treated with 5 μM NA-11, 100 μM apocynin, 5 μM NA-4, or DMSO vehicle and then activated with 100 nM PMA. The transwell plate was cultured in a new receiver plate containing 150 μL Hank’s balanced salt solution (HBSS) for 2 h. 10 μL of DMEM supplemented with 5% FBS and 2 mM L-glutamine were added to each well and the plate was incubated for additional 18 h. To measure the permeability of the epithelial barrier, FITC-dextran (200 μg/mL) and DNase-1 (22 Units/mL) were added to the apical side for 1 h. FITC-dextran in the receiver plate was measured (ex: 494 em: 521).

[4] = test system: human peripheral blood neutrophils; assay: NETosis assay in human neutrophils (SYTOX Green, DNA area); type: cell-based; conditions: PMA; SAR analogs compared to LDC7559
Method: Freshly purified neutrophils were plated at 6 × 10^3 cells/well in glass bottom 96-well plates (SensoPlate, Greiner Bio-One 82050-792) in the RPMI medium described above. Cells were pretreated with DMSO vehicle, 0.5 μM NA-11, 100 μM apocynin, 0.5 μM and 5 μM PALP, or 0.5 μM and 5 μM LDC7559 for 30 min, and then stimulated with 50 nM PMA, 1 μM f-MLP, 5 μg/mL cholesterol crystals, 10 μg/mL LPS, 25 μM nigericin, or 25 μM calcymicin (A23187) for 3 h (except in Figures S1A, 6A and S7C, where cells were stimulated for 4 h). Cells were fixed and permeabilized in 2.5% paraformaldehyde (PFA) and 0.02% Triton X-100 in PBS for 30 min. For quantification of NETosis, cells were stained with 150 nM SYTOX Green and imaged in a KEYENCE Fluorescence Microscope (KEYENCE, ZB-X800E) at 10 x magnification. For immunolabeling, fixed cells were blocked with 2% BSA for 1 h, and then stained with anti-CitH3 and anti-MPO antibodies at a dilution of 1/200 in 1% BSA in PBS. Images were taken at 60 x magnification using an ImageXpress Micro Confocal high-content imaging system (Molecular Devices).
Semi-automated analysis of both phase and fluorescence images of SYTOX Green-stained neutrophils used a specialized MATLAB algorithm. Total cells were counted by scoring phase standard deviation and radial symmetry. NETosis was classified in cells by measuring the DNA area in the fluorescence image and comparing with a select internal training set for each experiment. Unstimulated cells and PMA-stimulated, […] cells served as negative controls. PMA-stimulated cells served as a positive control. NET-forming cells are presented as a percentage of total cells.

PMNs [5] = assay: ROS detection assay (ROS-Glo) in neutrophils; type: cell-based, human
Method: ROS were measured using the ROS-Glo bioluminescent assay (Promega) for the direct detection of H2O2. Briefly, neutrophils (2 × 10^4) were plated in white 96-well plates (Greiner) in high glucose DMEM medium. Cells were cultured with DMSO vehicle, 0.5 μM NA-11, 5 μM LDC7559, 100 μM apocynin, or 200 μM thionicotinamide for 30 min, and then stimulated with 50 nM PMA or treated with 10 μg/mL zymosan beads, pre-opsonized in 20% serum for 30 min. Luminescence, after the addition of H2O2 substrate solution of 20 min, and then ROS-Glo detection solution for 20 min, was recorded on a plate reader (Envision).

PMNs [6] = assay: NADPH/NADP+ detection assay in neutrophils; type: cell-based, human; conditions: pretreatment, PMA-activated neutrophils
Method: The ratio of NADPH/NADP^+ (or NADH/NAD^+) was calculated after measuring the individual concentrations of NADPH and NADP^+ (or NADH and NAD^+) with NADP/NADPH-Glo (or NAD/NADH-Glo) assays (Promega). […] Cells were lysed in plates by addition of 1% dodecyltrimethylammonium bromide (DTAB). To measure NADPH, half of the samples was heated at 60 °C for 30 min. The other half was treated with HCl before heating to 60°C, to measure NADP^+. All samples were neutralized before adding luciferase detection reagent, then incubated for 1 h with gentle shaking. Luminescence was recorded on a plate reader (Envision).

E. coli = assay: Phagocytosis assay: E. coli C.F.U. recovered from PMNs; type: cell-based, human; conditions: neutrophils pretreated 30 min
Method: Neutrophils (1 × 10^6) were cultured in 6-well tissue in RPMI medium containing DMSO vehicle, 0.5 μM NA-11, 0.5 μM NA-4, 100 μM Apocynin or 100 μM thionicotinamide (TN) for 30 min. E. coli grown in LB broth overnight (2 mL) were opsonized with human serum (1 mL pooled from three donors) for 1 h at room temperature. Opsonized bacteria were washed with PBS, resuspended in LB broth to an OD600of 0.1 and then added to cultured neutrophils at an MOI of 1 for 30 min. Cells were washed with medium three times and then cultured with 300 μg/mL gentamicin for 2 h to kill any extracellular bacteria. Cells were then washed again, twice with medium and once with PBS. To release phagocytosed bacteria, neutrophils were lysed in 0.05% saponin in PBS. Lysates were passed through a 25’ gauge needed several times and the number of viable phagocytosed bacteria was determined by colony counting.

GSDMD = biological target: T2, GSDMD (Homo sapiens, UniProt P57764); assay: TR-FRET liposome cargo release (GSDMD pore formation); type: biochemical; conditions: 10 μM
T2 sequence (P57764 1-484): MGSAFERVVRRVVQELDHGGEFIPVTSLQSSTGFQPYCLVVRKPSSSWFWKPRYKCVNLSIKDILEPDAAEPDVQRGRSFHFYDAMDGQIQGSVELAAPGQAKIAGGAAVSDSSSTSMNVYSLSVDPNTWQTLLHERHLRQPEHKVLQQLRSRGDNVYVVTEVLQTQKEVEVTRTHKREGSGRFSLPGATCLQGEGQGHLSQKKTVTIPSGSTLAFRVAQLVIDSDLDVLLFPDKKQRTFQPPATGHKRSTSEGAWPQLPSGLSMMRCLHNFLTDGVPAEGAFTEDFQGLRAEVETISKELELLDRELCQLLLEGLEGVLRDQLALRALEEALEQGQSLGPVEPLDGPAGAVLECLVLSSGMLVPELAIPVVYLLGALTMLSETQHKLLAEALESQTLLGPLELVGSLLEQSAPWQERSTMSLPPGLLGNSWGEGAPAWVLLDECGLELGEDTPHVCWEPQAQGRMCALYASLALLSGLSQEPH
Method: GSDMD-dependent liposome cargo release was conducted by Confluence Discovery Technologies with modifications to the procedure described previously ([Aglietti et al., 2016]). Briefly, liposomes with an encapsulated cargo of europium-chelate conjugated biotin were formed from a lipid mixture of DOPC:DOPE (1:1). 0.15 mg/mL of cargo-loaded liposomes were mixed with 0.3 μM of recombinant GSDMD and incubated with 10 μM LDC7559, 10 μM disulfiram or DMSO vehicle. 0.15 μM caspase-4 and 50 nM streptavidin-Alexa Fluor 647 were added and TR-FRET was read over 1 h using a PHERAstar FSX Microplate Reader (BMG Labtech) equipped with a TR-FRET module.

O=C(COP(=O)(O)O)[C@@H](O)[C@H](O)[C@H](O)COP(=O)(O)O [FBP, fructose 1,6-bisphosphate]
protection of PFKL from thermal inactivation (PFKL [1]): protected PFKL from thermal inactivation

COc1ccccc1-c1cc2n(n1)Cc1ccc(N)cc1OC2 [NA-4]
activation of PFKL (PFKL [2]): did not activate PFKL | protection of epithelial layer from neutrophil-induced oxidative damage [3]: did not | inhibition of PMA-induced NETosis [4]: no inhibitor activity | ROS production during phagocytosis of opsonized zymosan (PMNs [5]; over 2 h): did not suppress ROS production

COc1cc(C(C)=O)ccc1O [apocynin, reference compound]
ratio of NADPH/NADP+ (PMNs [6]): roughly twice that of untreated cells | protection of epithelial layer from neutrophil-induced oxidative damage [3]: protected the epithelial layer | killing of phagocytosed bacteria (bacterial colonies recovered) (E. coli): less efficient killers of phagocytosed bacteria | PMA-induced ROS production (PMNs [5]; 50 nM PMA): prevented

CCN(CC)C(=S)SSC(=S)N(CC)CC [disulfiram]
liposome permeabilization by GSDMD pore-forming fragment (GSDMD): prevented liposome permeabilization
